Read-outs that look alike come from different tables or passages of the source.
Tested on: HIV-IIIb
Experiment: Antiviral assay in MT-2 cells infected with HIV-IIIb
Type: cell-based
[1] = Human immunodeficiency virus 1, IIIB, MT2, 120 h, MT-2 cells infected with HIV-IIIb, m.o.i. 0.01, 10% FBS, 5 days at 37° C., CellTiter-Glo chemiluminescence, read-out: EC50 in MT-2 cells
[2] = Human immunodeficiency virus 1, IIIB, MT2, 120 h, read-out: EC50 in MT-2 cells (nM)

EC50 [1] [nM]	SMILES	other results
2.8	CNC(=O)c1c(O)c2ncc(Cc3ccc(F)cc3)c3c2n(c1=O)C[C@@H](CN(C)C(C)(C)C)O3 [Example 201]	
5	O=C(NCC(F)(F)CO)c1c(O)c2ncc(Cc3ccc(F)cc3)c3c2n(c1=O)CC(F)(F)CN3 [Example 149]	
21	CNC(=O)c1c(O)c2ncc(Cc3ccc(F)cc3)c3c2n(c1=O)C=C(C(=O)N1CC(F)(F)C1)O3 [A-92]	
3.9	CNC(=O)c1c(O)c2ncc(Cc3ccc(F)cc3)c3c2n(c1=O)C=C(C(=O)NCC(F)(F)F)O3 [Example 115]	
6.3	CNC(=O)c1c(O)c2ncc(Cc3ccc(F)cc3)c3c2n(c1=O)C[C@@H](C(=O)NC)O3 [A-65]	
	CNC(=O)c1c(O)c2ncc(Cc3ccc(F)cc3)c3c2n(c1=O)C=C(C1=NC(C)(C)CO1)O3 [Example 129]	EC50 [2]: 2.2 nM
14	CNC(=O)c1c(O)c2ncc(Cc3ccc(F)cc3)c3c2n(c1=O)C=C(C(=O)NCC(C)(C)N1CCOCC1)O3 [Example 117]	
3.6	CNC(=O)C1=Cn2c(=O)c(C(=O)NCCOC)c(O)c3ncc(Cc4ccc(F)cc4)c(c32)O1 [A-87]	
5	COCCNC(=O)c1c(O)c2ncc(Cc3ccc(F)cc3)c3c2n(c1=O)C=C(C(=O)NC(C)(C)CO)O3 [Example 127]	
20	O=C(NCCN1CCNCC1)c1c(O)c2ncc(Cc3ccc(F)cc3)c3c2n(c1=O)CCO3 [compound 18]	
37	CNC(=O)[C@@H]1Cn2c(=O)c(C(=O)NCCOC)c(O)c3ncc(Cc4ccc(F)cc4)c(c32)O1 [Example 164]	
6.7	CNC(=O)C(=O)NC[C@@H]1Cn2c(=O)c(C(=O)NC)c(O)c3ncc(Cc4ccc(F)cc4)c(c32)O1 [Example 199]	
2.6	CNC(=O)c1c(O)c2ncc(Cc3ccc(F)cc3)c3c2n(c1=O)C[C@@H](C(=O)NCC(C)(C)O)O3 [Example 174]	
8	CCNC(=O)c1c(O)c2ncc(Cc3ccc(F)cc3)c3c2n(c1=O)C[C@@H](C(=O)NC)O3 [Example 165]	
1.2	CNC(=O)c1c(O)c2ncc(Cc3ccc(F)c(Cl)c3)c3c2n(c1=O)C[C@@H](C(=O)NC)O3 [Example 177]	
1.5	O=C(NCCO)c1c(O)c2ncc(Cc3ccc(F)cc3)c3c2n(c1=O)CCC3 [compound 65]	
20	Cc1cn2c(=O)c(C(=O)NCCO)c(O)c3ncc(Cc4ccc(F)cc4)c1c32 [compound 72]	
10	CCN(CC)C(=O)C1=Cn2c(=O)c(C(=O)NC)c(O)c3ncc(Cc4ccc(F)cc4)c(c32)O1 [Example 103]	
7	O=C(NC1CC(O)C1)c1c(O)c2ncc(Cc3ccc(F)cc3)c3c2n(c1=O)CC(F)(F)CN3 (stereo not drawn) [A-18]	
13.9	CNC(=O)c1c(O)c2ncc(Cc3ccc(F)cc3)c3c2n(c1=O)C=C(C(=O)N1CCCCC1)O3 [Example 131]	
12	CC(C)N1CCN(CCNC(=O)c2c(O)c3ncc(Cc4ccc(F)cc4)c4c3n(c2=O)CCO4)CC1 [compound 16]	
4	O=C(NCCCO)c1c(O)c2ncc(Cc3ccc(F)cc3)c3c2n(c1=O)CC(F)(F)CN3 [A-15]	
	CNC(=O)c1c(O)c2ncc(Cc3ccc(F)cc3)c3c2n(c1=O)C=C(C(=O)N(C)C)O3 [A-81]	EC50 [2]: 10.5 nM
12	O=C(NCCCN1CCOCC1)c1c(O)c2ncc(Cc3ccc(F)cc3)c3c2n(c1=O)CC(F)(F)CN3 [Example 153]	

EC50 [1] [nM]	SMILES	other results
5.8	CNC(=O)c1c(O)c2ncc(Cc3ccc(F)cc3)c3c2n(c1=O)C=C(C(=O)NC(C)(C)CN)O3 [Example 121]	
64	CNC(=O)c1c(O)c2ncc(Cc3ccc(F)cc3)c3c2n(c1=O)C=C(C(=O)NCC(C)(C)NC(=O)c1nnc(C)o1)O3 [Example 122]	
4	COCCNC(=O)c1c(O)c2ncc(Cc3ccc(F)cc3)c3c2n(c1=O)CC(F)(F)CN3 [A-10]	
27.4	COCCNC(=O)c1c(O)c2ncc(Cc3ccc(F)cc3)c3c2n(c1=O)C=C(C(=O)N1CCN(CC(F)(F)F)CC1)O3 [Example 110]	
35	CNC(=O)c1c(O)c2ncc(Cc3ccc(F)cc3)c3c2n(c1=O)C=C(C(=O)NCC(C)(C)N)O3 [Example 123]	
6.5	C[C@@H](CO)NC(=O)c1c(O)c2ncc(Cc3ccc(F)cc3)c3c2n(c1=O)CC(F)(F)CN3 [A-13]	
3.5	O=C(NCC1(O)CC1)c1c(O)c2ncc(Cc3ccc(F)cc3)c3c2n(c1=O)CC(F)(F)CN3 [A-11]	
3.2	O=C(NCCO)c1c(O)c2ncc(Cc3ccc(F)cc3)c3c2n(c1=O)CCO3 [compound 12]	
4.6	O=C(NCCN1CCCS1(=O)=O)c1c(O)c2ncc(Cc3ccc(F)cc3)c3c2n(c1=O)CC(F)(F)CN3 [Example 162]	
7	O=C(NCCO)c1c(O)c2ncc(Cc3ccc(F)cc3)c3c2n(c1=O)CCN3 [compound 30]	
11.7	CCNC(=O)C1=Cn2c(=O)c(C(=O)NCCC#N)c(O)c3ncc(Cc4ccc(F)cc4)c(c32)O1 [Example 112]	
4	N#CCNC(=O)c1c(O)c2ncc(Cc3ccc(F)cc3)c3c2n(c1=O)CC(F)(F)CN3 [Example 143]	
1.2	CNC(=O)c1c(O)c2ncc(Cc3ccc(F)cc3)c3c2n(c1=O)C[C@@H](CC#N)O3 [Example 181]	
9.5	CC(C)(O)CNC(=O)c1c(O)c2ncc(Cc3ccc(F)cc3)c3c2n(c1=O)CCN3 [compound 39]	
7.1	CC(C)(CO)NC(=O)C1=Cn2c(=O)c(C(=O)NC3CC3)c(O)c3ncc(Cc4ccc(F)cc4)c(c32)O1 [Example 128]	
17	O=C(NC1CC1)c1c(O)c2ncc(Cc3ccc(F)cc3)c3c2n(c1=O)CCCN3 [compound 50]	
2.9	CCNC(=O)C1=Cn2c(=O)c(C(=O)NC)c(O)c3ncc(Cc4ccc(F)cc4)c(c32)O1 [A-90]	
5.5	O=C(NCCc1ncc[nH]1)c1c(O)c2ncc(Cc3ccc(F)cc3)c3c2n(c1=O)CC(F)(F)CN3 [Example 146]	
1	CNC(=O)c1c(O)c2ncc(Cc3ccc(F)cc3)c3c2n(c1=O)C[C@@H](Cn1ccnc1C(=O)NC)O3 [Example 205]	
	CNC(=O)c1c(O)c2ncc(Cc3ccc(F)cc3)c3c2n(c1=O)C=C(COC)O3 [Example 137]	EC50 [2]: 5 nM
6	O=C(NCCOCc1ccccc1)c1c(O)c2ncc(Cc3ccc(F)cc3)c3c2n(c1=O)CCN3 [compound 32]	
6	CC(C)(C#N)CNC(=O)c1c(O)c2ncc(Cc3ccc(F)cc3)c3c2n(c1=O)CC(F)(F)CN3 [Example 154]	
	CCN(CC)C(=O)C1=Cn2c(=O)c(C(=O)NC)c(O)c3ncc(Cc4ccc(F)cc4)c(c32)O1 [Example 125]	EC50 (MT-2 cells infected with HIV-IIIb, m.o.i. 0.01, 10% FBS, 5 days at 37° C., CellTiter-Glo chemiluminescence, listed as A-177, read-out: EC50 in MT-2 cells): 5.5 nM
3	CNC(=O)c1c(O)c2ncc(Cc3ccc(F)cc3)c3c2n(c1=O)C[C@H](CC#N)O3 [Example 198]	

EC50 [1] [nM]	SMILES	other results
982	CC(=O)N1CCn2c(=O)c(C(=O)NCCO)c(O)c3ncc(Cc4ccc(F)cc4)c1c32 [compound 43]	
7.2	CNC(=O)c1c(O)c2ncc(Cc3ccc(F)cc3)c3c2n(c1=O)C=C(C(=O)NC(C)(C)C)O3 [Example 136]	
34	O=C(NCCN1CCCC1)c1c(O)c2ncc(Cc3ccc(F)cc3)c3c2n(c1=O)CC(F)(F)CN3 [Example 156]	
18.5	CNC(=O)c1c(O)c2ncc(Cc3ccc(F)cc3)c3c2n(c1=O)CC(F)(F)CN3C [Example 163]	
1.5	COCC1Cn2c(=O)c(C(=O)NCCO)c(O)c3ncc(Cc4ccc(F)cc4)c(c32)O1 (stereo not drawn) [A-31]	
19	CNC(=O)c1c(O)c2ncc(Cc3ccc(F)cc3)c3c2n(c1=O)C=C(C(=O)NC(C)(C)CNC(=O)OC(C)(C)C)O3 [Example 120]	
12	CNC(=O)c1c(O)c2ncc(Cc3ccc(F)cc3)c3c2n(c1=O)C[C@@H](Cn1ccnc1C)O3 [Example 203]	
9	CNC(=O)[C@@H]1Cn2c(=O)c(C(=O)NCCCO)c(O)c3ncc(Cc4ccc(F)cc4)c(c32)O1 [Example 166]	
3.5	CNC(=O)c1c(O)c2ncc(Cc3ccc(F)cc3)c3c2n(c1=O)C=C(C(=O)NCC(C)(C)O)O3 [Example 140]	
3.3	CNC(=O)c1c(O)c2ncc(Cc3ccc(F)cc3)c3c2n(c1=O)C=C(C(=O)NC(C)(C)CO)O3 [Example 126]	
7	CNC(=O)c1c(O)c2ncc(Cc3ccc(F)cc3)c3c2n(c1=O)C=C(C(=O)NCC1(O)CC1)O3 [Example 133]	
7	O=C(NCCN1CCOCC1)c1c(O)c2ncc(Cc3ccc(F)cc3)c3c2n(c1=O)CCO3 [compound 13]	
7.5	COCCNC(=O)c1c(O)c2ncc(Cc3ccc(F)cc3)c3c2n(c1=O)C=C(C(=O)N1CCOCC1(C)C)O3 [Example 108]	
4	CNC(=O)c1c(O)c2ncc(Cc3ccc(F)cc3)c3c2n(c1=O)C=C(C(=O)NC1CC1)O3 [A-85]	
400	CC1(C)Cn2c(=O)c(C(=O)NCCN3CCOCC3)c(O)c3ncc(Cc4ccc(F)cc4)c1c32 [compound 60]	
37	CNC(=O)c1c(O)c2ncc(Cc3ccc(F)cc3)c3c2n(c1=O)C=C(C(=O)N1CCOCC1)O3 [A-83]	
37.5	COCCNC(=O)c1c(O)c2ncc(Cc3ccc(F)cc3)c3c2n(c1=O)C=C(C(=O)NCCN1CCCC1)O3 [Example 109]	
8.2	C[C@@H]1CCCN1CCCNC(=O)c1c(O)c2ncc(Cc3ccc(F)cc3)c3c2n(c1=O)CC(F)(F)CN3 [Example 158]	
4.6	O=C(NCCO)c1c(O)c2ncc(Cc3ccc(F)cc3)c3c2n(c1=O)CCCO3 [compound 24]	
4.2	O=C(NCCCN1CCCC1=O)c1c(O)c2ncc(Cc3ccc(F)cc3)c3c2n(c1=O)CC(F)(F)CN3 [Example 161]	
1.8	CNC(=O)c1c(O)c2ncc(Cc3ccc(F)cc3)c3c2n(c1=O)C[C@@H](Cn1ccnc1)O3 [Example 183]	
4	N#CCCNC(=O)c1c(O)c2ncc(Cc3ccc(F)cc3)c3c2n(c1=O)CC(F)(F)CN3 [A-9]	
4	COCCNC(=O)c1c(O)c2ncc(Cc3ccc(F)cc3)c3c2n(c1=O)CC(CO)O3 (stereo not drawn) [A-27]	
13	O=C(NCCN(CCO)CCO)c1c(O)c2ncc(Cc3ccc(F)cc3)c3c2n(c1=O)CCO3 [compound 15]	
